Test results published in US5955495A, “Method of treating diseases of the CNS” (Hoffmann-La Roche Inc., priority 1997, dated 1999).

Legend:
[1] = target: T1, 5-HT2A receptor (Homo sapiens, UniProt P28223); experiment: [3H]-DOB binding assay (method b), affinity to the 5-HT2A receptor; details: Ki from IC50 in nM; for Ki: read-out: Pki (Pki=-log10 Ki), 5-HT2A, Method b (converted)
T1 construct: expressed in transfected cells
Description: (§1) The binding of compounds of formula I in accordance with the invention to selected serotonin […] was determined in vitro by standard methods. The preparations were investigated in accordance with the tests given hereinafter:
b) Affinity to the 5-HT2A receptor in accordance with the [3H]- DOB binding assay according to the method of T. Branchek et. al., Molecular Pharmacology 38, 604-609 (1990).
(§2) The Pki values (Pki=-log10 Ki) of the test substances are given. The Ki value is defined by the following formula: [formula] with the IC50 values being those concentrations of test compounds in nM at which 50% of the receptor-bonded ligands are displaced. [L] is the ligand concentration and the KD value is the dissocation constant of the ligand.

[2] = target: T2, 5-HT2C receptor (Rattus norvegicus, UniProt P08909); experiment: [3H]-5-HT binding assay (method a), affinity to the 5-HT2C receptor; design: expressed in transfected cells; details: Ki from IC50 in nM; for Ki: read-out: Pki (Pki=-log10 Ki), 5-HT2C, Method a (converted)
T2 sequence (P08909 33-460): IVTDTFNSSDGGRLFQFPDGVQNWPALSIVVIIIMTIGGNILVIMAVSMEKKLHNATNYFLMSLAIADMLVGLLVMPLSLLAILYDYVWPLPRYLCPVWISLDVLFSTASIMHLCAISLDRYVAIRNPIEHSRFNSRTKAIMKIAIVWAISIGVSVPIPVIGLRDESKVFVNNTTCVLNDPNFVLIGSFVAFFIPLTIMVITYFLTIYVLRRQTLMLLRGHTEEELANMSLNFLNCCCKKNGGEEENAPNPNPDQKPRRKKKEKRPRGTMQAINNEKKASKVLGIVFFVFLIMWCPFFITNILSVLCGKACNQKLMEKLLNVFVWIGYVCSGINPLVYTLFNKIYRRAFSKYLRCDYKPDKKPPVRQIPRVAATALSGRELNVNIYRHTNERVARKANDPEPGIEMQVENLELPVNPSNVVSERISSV
Description: as §1
a) Affinity to the 5-HT2C receptor in accordance with the [3H]-5-HT binding assay according to the method of S.J. Peroutka et al., Brain Research 584, 191-196 (1992).
as §2

[3] = target: T2, 5-HT2C receptor; experiment: Penile erection (rats); assay type: in vivo; design: following the administration of the test substance to the animals; from tissue; host or cells: whole living rat (in vivo); details: po, 0.75 h, p.o., erections within 45 minutes following administration, read-out: ID50 (mg/kg) (p.o.), penile erection
Description: It has been shown that penile erection is dependent on the stimulation of 5HT2C receptors (see Berendsen & Broekkamp, Eur. J. Pharm., 135, 179-184 (1987).
The number of penile erections was determined within 45 minutes following the administration of the test substance to the animals. The ED50 is the dosage which causes 50% of these erections.

T1 sequence (P28223 whole entry): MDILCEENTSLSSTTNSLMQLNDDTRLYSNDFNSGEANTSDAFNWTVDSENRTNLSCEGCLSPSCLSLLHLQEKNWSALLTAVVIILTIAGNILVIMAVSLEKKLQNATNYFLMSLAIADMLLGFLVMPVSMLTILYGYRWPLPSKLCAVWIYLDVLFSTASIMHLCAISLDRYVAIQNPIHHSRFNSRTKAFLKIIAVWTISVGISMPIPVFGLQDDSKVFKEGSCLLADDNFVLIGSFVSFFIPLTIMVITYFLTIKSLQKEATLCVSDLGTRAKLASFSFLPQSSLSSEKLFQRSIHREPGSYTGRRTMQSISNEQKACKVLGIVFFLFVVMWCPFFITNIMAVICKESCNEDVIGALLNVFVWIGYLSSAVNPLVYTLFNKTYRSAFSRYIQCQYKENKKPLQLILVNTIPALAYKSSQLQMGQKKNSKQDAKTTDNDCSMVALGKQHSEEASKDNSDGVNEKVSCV

Compound | Ki [1] | Ki [2] | ED50 [3] | Pki (Pki=-log10 Ki), 5-HT2A, Method b [1] | Pki (Pki=-log10 Ki), 5-HT2C, Method a [2]
COc1cccc2oc(C(=N)N)cc12 [H H H OMe H] | 2000 nM | 158 nM | – | – | –
Cc1cccc2cc(C(=N)N)oc12 [Me H H H H] | 2510 nM | 398 nM | – | – | –
CC(C)COc1cccc2cc(C(=N)N)oc12 [Oi-Bu H H H H] | 1000 nM | 2000 nM | – | – | –
CC(C)c1cccc2cc(C(=N)N)oc12 [i-Prop H H H H] | 794 nM | 63.1 nM | – | – | –
N=C(N)c1cc2cccc(Cl)c2o1 [Cl H H H H] | 3980 nM | 158 nM | – | – | –
N=C(N)c1cc2ccccc2o1 [H H H H H, benzofuran-2-carboxamidine] | 5010 nM | 79.4 nM | 5 mg/kg | – | –
NC(=NO)c1cc2c(F)cccc2o1 [Example 18, 4-Fluorobenzofuran-2-carboxamidoxime] | 2510 nM | 79.4 nM | – | – | –
N=C(N)c1cc2c(F)cc(F)cc2o1 [Example 10, 4.6-Difluoro-benzofuran-2-carboxamidine] | 631 nM | 7.94 nM | – | – | –
N=C(N)c1cc2cc(F)ccc2o1 [Example 5, 5-Fluorobenzofuran-2-carboxamidine] | 2000 nM | 158 nM | – | – | –
N=C(N)c1cc2cccc(OC3CCCCC3)c2o1 [O-Cyclo-hex H H H H] | 158 nM | 631 nM | – | – | –
NC(=NO)c1cc2ccc(F)cc2o1 [Example 16, 6-Fluorobenzofuran-2-carboxamidoxime] | > 10000 nM | 4370 nM | 1.6 mg/kg | – | –
N=C(N)c1cc2cccc(OC3CCCC3)c2o1 [O-Cyclo-pent H H H H] | 251 nM | 501 nM | – | – | –
N=C(N)c1cc2cccc(O)c2o1 [CH H H H H] | – | – | – | < 5 | 6.2
CCOc1cccc2cc(C(=N)N)oc12 [Example 4, 7-Ethoxybenzofuran-2-carboxamidine] | > 10000 nM | 50.1 nM | – | – | –
COc1cccc2cc(C(=N)N)oc12 [Example 3, 7-Methoxybenzofuran-2-carboxamidine] | > 10000 nM | 158 nM | – | – | –
N=C(N)c1cc2cccc(Br)c2o1 [Br H H H H] | 1580 nM | 126 nM | – | – | –
NC(=NO)c1cc2cc(F)c(F)cc2o1 [Example 13, 5,6-Difluorobenzofuran-2-carboxamidoxime] | > 10000 nM | > 10000 nM | – | – | –
CC(C)CCOc1cccc2cc(C(=N)N)oc12 [Oi-Pent H H H H] | 158 nM | 501 nM | – | – | –
N=C(N)c1cc2c(F)ccc(Br)c2o1 [Example 12, 7-Bromo-4-fluorobenzofuran-2-carboxamidine] | > 10000 nM | > 10000 nM | – | – | –
CCOc1cccc2cc(C(N)=NO)oc12 [Example 14, 7-Ethoxybenzofuran-2-carboxamidoxime] | > 10000 nM | 5500 nM | – | – | –
Cc1ccc2cc(C(=N)N)oc2c1 [H Me H H H] | > 10000 nM | 1000 nM | – | – | –
N=C(N)c1cc2cc(Cl)cc(Cl)c2o1 [Cl H Cl H H] | 631 nM | 2510 nM | – | – | –
N=C(N)c1cc2ccc3c(c2o1)OCC3 [--O--CH2 --CH2 -- H H H] | 3160 nM | 398 nM | – | – | –
CC(C)OCc1cccc2cc(C(=N)N)oc12 [CH2 --O-iPr H H H H] | 2000 nM | 398 nM | 5.1 mg/kg | – | –
N=C(N)c1cc2cccc(F)c2o1 [F H H H H] | 5010 nM | 794 nM | – | – | –
CSCc1cccc2cc(C(=N)N)oc12 [CH2 --S-Me H H H H] | 1000 nM | 251 nM | – | – | –

Compound | Ki [1] | Ki [2] | ED50 [3] | Pki (Pki=-log10 Ki), 5-HT2A, Method b [1] | Pki (Pki=-log10 Ki), 5-HT2C, Method a [2]
COc1ccc(C)c2cc(C(=N)N)oc12 [OMe H H Me H] | 2510 nM | 100 nM | – | – | –
CCCc1cccc2cc(C(=N)N)oc12 [n-Pr H H H H] | 1000 nM | 79.4 nM | – | – | –
N=C(N)c1cc2cccc(-c3ccccc3)c2o1 [Ph H H H H] | 158 nM | 251 nM | – | – | –
COc1ccc2cc(C(=N)N)oc2c1 [H OMe H H H] | 6310 nM | 631 nM | – | – | –
N=C(N)c1cc2cc(Cl)ccc2o1 [H H Cl H H] | 1580 nM | 1580 nM | – | – | –
COc1cc(Br)cc2cc(C(=N)N)oc12 [OMe H Br H H] | 2510 nM | 126 nM | – | – | –
COc1cc(-c2ccccc2)cc2cc(C(=N)N)oc12 [OMe H Ph H H] | 158 nM | 1580 nM | – | – | –
N=C(N)c1cc2ccc(Cl)cc2o1 [H Cl H H H] | 5010 nM | 1260 nM | – | – | –
CCOc1cccc2oc(C(=N)N)cc12 [Example 2, 4-Ethoxybenzofuran-2-carboxamidine] | > 10000 nM | 158 nM | – | – | –
NC(=NO)c1cc2cc(F)ccc2o1 [Example 15, 5-Fluorobenzofuran-2-carboxamidoxime] | > 10000 nM | 4270 nM | – | – | –
N=C(N)c1cc2ccc(F)cc2o1 [Example 6, 6-Fluorobenzofuran-2-carboxamidine] | 2510 nM | 158 nM | 3 mg/kg | – | –
NC(=NO)c1cc2ccccc2o1 [H H H H CH, benzofuran-2-carboxamidoxime] | > 10000 nM | > 10000 nM | 2 mg/kg | – | –
CCOCc1cccc2cc(C(N)=NO)oc12 [Example 17, 7-Ethoxymethylbenzofuran-2-carboxamidoxime] | > 10000 nM | > 10000 nM | – | – | –
N=C(N)c1cc2cc(Cl)cc(Br)c2o1 [Br H Cl H H] | 316 nM | 5010 nM | – | – | –
CCCc1ccc(F)c2cc(C(=N)N)oc12 [Example 11] | 501 nM | 7.94 nM | – | – | –
CC(C)Oc1cccc2cc(C(=N)N)oc12 [Oi-Pr H H H H] | 1000 nM | 200 nM | – | – | –
COCc1cccc2cc(C(=N)N)oc12 [CH2 --O-Me H H H H] | 3160 nM | 158 nM | – | – | –
N=C(N)c1cc2cc(F)c(F)cc2o1 [Example 1, 5,6-Difluorobenzofuran-2-carboxamidine] | 2000 nM | 158 nM | 6 mg/kg | – | –
CSc1cccc2cc(C(=N)N)oc12 [SMe H H H H] | 1000 nM | 79.4 nM | – | – | –
N=C(N)c1cc2c(F)cccc2o1 [Example 9, 4-Fluoro-benzofuran-2-carboxamidine] | 2000 nM | 39.8 nM | 2.9 mg/kg | – | –
N=C(N)c1cc2cccc(OCc3ccccc3)c2o1 [OBn H H H H] | 126 nM | 63.1 nM | – | – | –
COc1ccc2oc(C(=N)N)cc2c1 [H H OMe H H] | > 10000 nM | 2510 nM | – | – | –
CCOCc1cccc2cc(C(=N)N)oc12 [Example 7, 7-Ethoxymethylbenzofuran-2-carboxamidine] | 2000 nM | 100 nM | – | – | –
CCCOc1cccc2cc(C(=N)N)oc12 [OPr H H H H] | > 10000 nM | 158 nM | – | – | –
N=C(N)c1cc2cc(Br)cc(Br)c2o1 [Br H Br H H] | 316 nM | 2000 nM | – | – | –
CCCc1c(F)ccc2cc(C(=N)N)oc12 [Example 8, 6-Fluoro-7-propylbenzofuran-2-carboxamidine] | 158 nM | 20 nM | – | – | –
